The data set can be described thus: Human HepG2 cell viability assay in 384 well format. The data set is classed as toxicity, cell-based. Set-up: dose 125 nL, time 70.5 hour; concentration not given beside the values. The note with it: HepG2 cells, read-out: Inhibition.
Regarding `CC(C)CN1C(=O)C[C@@H]2[C@@H]1CCN2Cc1cccc(C#N)c1`, the cytotoxicity at 70.5 h turned out to be 2.48%.

Take `COCCCN1CCN(CCOC)C(C)C1` (centres undefined): the cytotoxicity at 70.5 h amounted to 0.867%.

With `O=C1CC(C(=O)O)C2(CCN(C(=O)NCc3ccc(Cl)cc3)CC2)N1` (centres undefined), the cytotoxicity at 70.5 h is -2.42%.

As for `CCCNC(=O)c1cccc(CNCc2csc(C(C)C)n2)c1`, the cytotoxicity at 70.5 h is -78.5%.

As for `Cc1cccc(C(C)CNC(=O)N2CCC3(C2)OCCO3)c1` (centres undefined), the cytotoxicity at 70.5 h stood at 12.8%.

As for `Fc1cccc2[nH]c(CN3CCn4c(nnc4C4CC4)C3)nc12`, the cytotoxicity at 70.5 h turned out to be 1.58%.

Take `O=C(c1cc2c([nH]c1=O)CCC2)N1CCCCCC1c1ccncc1` (centres undefined): the cytotoxicity at 70.5 h was -6.24%.

For the compound `Cc1ncc2c(c1C(=O)O)CCN(c1ncc(F)cn1)C2`, the cytotoxicity at 70.5 h is -0.54%.

For the compound `O=C(NCCCNc1ccc(C(F)(F)F)cn1)c1ccc(F)cc1F`, the cytotoxicity at 70.5 h was -4.42%.

As for `COc1ccc(C(=O)NCCNC(=O)c2cncnc2C)cc1`, the cytotoxicity at 70.5 h is -8.47%.

Take `CCc1cnc(CN(C)C(=O)NC2CCN(CC3CC3)C2)s1` (centres undefined): the cytotoxicity at 70.5 h is 25.5%.

For the compound `Cn1cc(Br)cc1C(=O)NC1(C#N)CC1`, the cytotoxicity at 70.5 h turned out to be 15.5%.

Consider `COCCNC(=O)NC(c1ccccc1)c1ccccc1OC` (centres undefined), for which the cytotoxicity at 70.5 h is -3.63%.

Regarding `Cc1cc(C(=O)CN2CCN(c3ncccn3)CC2)c(C)n1C(C)C`, the cytotoxicity at 70.5 h is 12.3%.

In the case of `CC(CO)NC(=O)c1ccc(NCc2cc(C#N)ccc2F)cc1` (centres undefined), the cytotoxicity at 70.5 h was -0.552%.

In the case of `CC(=O)N1CCOC[C@H](Oc2ccc(C(F)(F)F)cc2)C1`, the cytotoxicity at 70.5 h amounted to 1.19%.

`O=S(=O)(Cc1ccc(F)cc1)NCCc1nnc2n1CCC2`: the cytotoxicity at 70.5 h was -18.4%.

In the case of `CC1(C(=O)NCc2cccc(C(F)(F)F)c2)CCOCC1`, the cytotoxicity at 70.5 h was -5.33%.

For the compound `Cc1cc(C)c2[nH]c(C(=O)NCCN3CCNC3=O)c(C)c2c1`, the cytotoxicity at 70.5 h was -5.43%.

On to `CSCC(C)N(C)C(=O)CN1CCN(c2ccccn2)CC1` (centres undefined), for which the cytotoxicity at 70.5 h was 17.8%.

In the case of `Cn1c(N)nnc1SCc1c(F)cccc1Br`, the cytotoxicity at 70.5 h was -3.61%.

`CCC(=O)N1CCCCC1c1nc(CN(C)C(C)=O)cc(N(C)C)n1` (centres undefined): the cytotoxicity at 70.5 h was -1.37%.

Turning to `CN(C)CC(=O)N1CCN(C(=O)c2cccc3[nH]ncc23)CC1`, the cytotoxicity at 70.5 h is -8.09%.

Turning to `CCO[C@H]1C[C@@H](O)C12CCN(C1Cc3ccccc3C1)CC2`, the cytotoxicity at 70.5 h was -10.5%.

For `Cc1cc(NCc2ccco2)nc2[nH]nc(N)c12`, the cytotoxicity at 70.5 h is -3.79%.

As to `Cn1cc(C#N)c(=O)n(CC(O)c2ccccc2F)c1=O` (centres undefined), the cytotoxicity at 70.5 h was -13.2%.

Take `CCC1CN(Cc2nnc(C3CC3)o2)CCN1CCOC` (centres undefined): the cytotoxicity at 70.5 h was found to be 0.024%.

In the case of `CN(Cc1nnc(C2CC2)n1C)C1CCN(Cc2nccn2C)C1` (centres undefined), the cytotoxicity at 70.5 h came to 2.78%.

Consider `Cc1cc(C)n(CC2CCCN2C(=O)Cc2c(C)nn(C)c2C)n1` (centres undefined), for which the cytotoxicity at 70.5 h is -0.624%.

As to `CC(=O)N1C[C@@H]2CC[C@H](C1)N(S(=O)(=O)c1ccccc1Cl)C2`, the cytotoxicity at 70.5 h was -14.4%.

Regarding `CCC[C@H]1CN(CCS(C)(=O)=O)C[C@@H]1NC(=O)c1cccnn1`, the cytotoxicity at 70.5 h was 7.31%.

For the compound `CN(C)Cc1cnn(-c2ccccc2C(=O)N(C)Cc2ccccc2)c1`, the cytotoxicity at 70.5 h was -5.67%.

Take `CC1CN(C)CCN1C(=O)Nc1nc(-c2ccc[nH]2)cs1` (centres undefined): the cytotoxicity at 70.5 h is -14.7%.

As to `CNC(=O)CN(C)c1cncc(OCc2ccccc2)n1`, the cytotoxicity at 70.5 h worked out at 8.53%.

Regarding `COc1ccc(CCN(C)C(=O)CN2C(=O)OC[C@@H]2C(C)C)cc1OC`, the cytotoxicity at 70.5 h was -4.47%.

Turning to `CO[C@H]1CCN(C(=O)Cc2ccsc2)[C@@H]2CN(CC3CC3)C[C@H]12`, the cytotoxicity at 70.5 h was -4.21%.

For the compound `O=C(CCn1c(C(F)(F)F)cc2cccnc21)N1CCOCC1`, the cytotoxicity at 70.5 h was 0.815%.

For `NC(=O)c1cnn2c(C3CCCN(C4CCOCC4)C3)ccnc12` (centres undefined), the cytotoxicity at 70.5 h was -0.336%.

Take `CN1CCCC[C@@H]2[C@H]1[C@@H](c1ccccc1)CCN2C(=O)c1cccnc1`: the cytotoxicity at 70.5 h was -7.01%.

As to `CCC(CNC(=O)COC)Oc1cccc(F)c1` (centres undefined), the cytotoxicity at 70.5 h is 14.9%.

On to `CC(=O)N1CC2(CCN(C(=O)c3ccoc3)C2)C1`, for which the cytotoxicity at 70.5 h is -2.66%.

On to `COc1cc(CN(C)C(=O)Cc2c(C)nn(C)c2C)ccc1OC(F)F`, for which the cytotoxicity at 70.5 h amounted to 3.07%.

As to `CS(=O)(=O)c1ccc(NCc2ccc(F)cc2)cn1`, the cytotoxicity at 70.5 h was -6.37%.

Consider `CCc1[nH]ncc1C(=O)N1CCCC(n2cncn2)C1` (centres undefined), for which the cytotoxicity at 70.5 h came out at 1.79%.

For the compound `COc1ccccc1CN1CCCC2(Cc3ccccc3CNC2=O)C1` (centres undefined), the cytotoxicity at 70.5 h is -1.54%.

`O=C(Cn1ccc2ccccc21)N1CCC(Oc2cnccn2)CC1`: the cytotoxicity at 70.5 h is -7%.

As to `Fc1cnc(N2CC3(CCN(CC4CC4)C3)C2)nc1`, the cytotoxicity at 70.5 h was -0.963%.

For `COCc1nc(C(=O)N2CCCC2c2noc(C(C)C)n2)cs1` (centres undefined), the cytotoxicity at 70.5 h was -0.699%.

`CCNC(=O)[C@@H]1C[C@@H](NC(=O)Cc2ccccn2)CN1CCCSC`: the cytotoxicity at 70.5 h is 14.8%.

Consider `Cc1nnsc1CN1CCCC1c1nc(-c2ccccc2)no1` (centres undefined), for which the cytotoxicity at 70.5 h was -3.77%.

Take `c1cncc(CN2CCN3C[C@H](Oc4cncnc4)C[C@H]3C2)c1`: the cytotoxicity at 70.5 h was -5.49%.

Regarding `Cc1ccc(N2CCC3(CCN(C(=O)c4ccnnc4)CC3)CC2)nn1`, the cytotoxicity at 70.5 h worked out at 2.95%.

As to `COc1ccc(Cn2cc(C(=O)N(C)Cc3ccn[nH]3)nn2)cc1`, the cytotoxicity at 70.5 h is -18.5%.

For the compound `COC(=O)CNC(=O)Cn1ccc2cccc(OC)c21`, the cytotoxicity at 70.5 h was 7.12%.

Regarding `O=C(Nc1ccc(Cl)cn1)C1CCCN(CCc2ccncc2)C1` (centres undefined), the cytotoxicity at 70.5 h was -1.77%.

As to `Cc1cc(N2CCCC2c2nnc3n2CCCCC3)nc(C)n1` (centres undefined), the cytotoxicity at 70.5 h was -3.38%.

For the compound `CCOC(=O)N1CCN(C(=O)c2cc(-c3ccccc3F)on2)CC1`, the cytotoxicity at 70.5 h was -0.971%.

For the compound `CNc1ncc(CN2CCC(c3nnsc3S(C)(=O)=O)CC2)cn1`, the cytotoxicity at 70.5 h is -7.26%.

As for `COc1ccc(C)cc1C(C)NS(=O)(=O)c1ccc2c(c1)CCC(=O)N2` (centres undefined), the cytotoxicity at 70.5 h was determined as 8.83%.

In the case of `CCc1cc(=O)n(CC(=O)N2CCCC2)c(-c2cccc(F)c2)n1`, the cytotoxicity at 70.5 h is 4.18%.

Consider `CC(C)Cc1cc(CNC(=O)c2ccccc2C2CCNC2)no1` (centres undefined), for which the cytotoxicity at 70.5 h was -17.5%.

For `CN(C)Cc1nnc(C2CCCN(c3nc(C(N)=O)cs3)C2)n1C` (centres undefined), the cytotoxicity at 70.5 h is -7.8%.

Take `Cc1cc(C)c(CNC(=O)N(C)Cc2cccc(F)c2)c(=O)[nH]1`: the cytotoxicity at 70.5 h is 0.933%.

Consider `O=C1CC2(CCN(C(=O)c3cccc(Cl)c3)CC2)CN1`, for which the cytotoxicity at 70.5 h is -7.17%.

As for `CC(C)c1ccc(C(C)NC(=O)N2CCC(n3cncn3)CC2)cc1` (centres undefined), the cytotoxicity at 70.5 h was -13.4%.

Consider `Cc1ccc(C(=O)N2CCC3(CCN(Cc4ccccn4)C3=O)C2)cn1` (centres undefined), for which the cytotoxicity at 70.5 h is -5.23%.

`Cc1ccoc1C(=O)NC1CCN(CC(=O)N(C)c2ccccc2)CC1`: the cytotoxicity at 70.5 h worked out at 18%.

On to `Cc1nnc2n1CCN(CC(=O)NC(C)c1ccc3ccccc3c1)C2` (centres undefined), for which the cytotoxicity at 70.5 h amounted to 17.7%.

In the case of `Cc1noc(C)c1CC(=O)Nc1ccn(CC(N)=O)n1`, the cytotoxicity at 70.5 h was -5.49%.

Consider `N#Cc1cccc(N2CCOC3(CNCCOC3)C2)n1` (centres undefined), for which the cytotoxicity at 70.5 h amounted to 15.5%.

Regarding `CC(C)CNC(=O)c1cccc(CN2CCc3c(ncn3C)C2)c1`, the cytotoxicity at 70.5 h is -13.6%.

As to `O=C(NCc1cn2c(n1)SCC2)c1ccc(CN2CCCCC2)cc1`, the cytotoxicity at 70.5 h amounted to 2.13%.

In the case of `CC1(C)CN(CC(F)(F)F)CCN1CC(=O)N1CCCCC1`, the cytotoxicity at 70.5 h came to 11.7%.

As for `Cc1csc(CNC(=O)Cc2ccc3c(c2)OCCO3)n1`, the cytotoxicity at 70.5 h is -5.71%.

On to `COc1c(C2CCCN2CC(=O)N(C)c2nccs2)c(C)nn1C` (centres undefined), for which the cytotoxicity at 70.5 h stood at 0.589%.

Take `Cc1nc2cc(C3CCCCN3C(=O)C3CC3)nn2c(O)c1C` (centres undefined): the cytotoxicity at 70.5 h is -2.34%.

With `COc1ccc(CNCCc2cccc(C(N)=O)c2)cc1C`, the cytotoxicity at 70.5 h worked out at 11.7%.

Consider `O=C(Nc1nncs1)N1CCC(c2ccc(O)cc2)CC1`, for which the cytotoxicity at 70.5 h is -4.31%.

For the compound `COc1ccc(CN2CCN(c3ncc(Cl)cn3)CC2)cc1`, the cytotoxicity at 70.5 h was 13.2%.

Turning to `CN(Cc1ccccn1)C(C(=O)O)c1ccc2c(c1)OCO2` (centres undefined), the cytotoxicity at 70.5 h was -2.22%.

On to `CCN1C(=O)CCCC12CCCN(C(=O)c1ccoc1)C2` (centres undefined), for which the cytotoxicity at 70.5 h was -3.69%.

With `CS(=O)(=O)c1ccc(NC(=O)NCc2ccc3c(c2)CCC3)cn1`, the cytotoxicity at 70.5 h is -2.56%.

Regarding `CCC[C@@H]1CN(C(=O)c2c(F)ccc(OC)c2F)C[C@H]1C(=O)O`, the cytotoxicity at 70.5 h was -0.545%.

In the case of `Cc1csc(CN2C[C@H](NC(=O)C3CCOCC3)[C@@H](C(C)C)C2)n1`, the cytotoxicity at 70.5 h is -10.9%.

For `COCCNc1cc(-c2ccccc2C(N)=O)c2cc[nH]c2n1`, the cytotoxicity at 70.5 h was -10.4%.

With `CCc1nc(CN(C)C2CCN(CCNS(=O)(=O)CC)C2)no1` (centres undefined), the cytotoxicity at 70.5 h came to 46.2%.

Turning to `CN(Cc1ccsc1)C(=O)c1ccc2c(c1)NC(=O)CO2`, the cytotoxicity at 70.5 h was -7.5%.

For the compound `CCc1nnc2n1CCN(CCS(=O)(=O)c1ccccc1)C2`, the cytotoxicity at 70.5 h is -11.4%.

For `CN(C)S(=O)(=O)N1C[C@H]2C[C@H](C(=O)Nc3ccccc3)[C@@H](C1)O2`, the cytotoxicity at 70.5 h is -5.82%.

In the case of `CS(=O)(=O)c1cccc(Cl)c1C(=O)NCCN1C(=O)CCC1=O`, the cytotoxicity at 70.5 h was 16.3%.

Consider `CCn1ncnc1C1CC(=O)NCc2nc3ccccn3c21` (centres undefined), for which the cytotoxicity at 70.5 h is -3.8%.

On to `Cc1nn(CC(O)CN2CCc3ccccc3C2)c(=O)c(C#N)c1C` (centres undefined), for which the cytotoxicity at 70.5 h was -19.9%.

As for `CC(NC(=O)NCc1ccccc1F)(C(=O)O)c1ccco1` (centres undefined), the cytotoxicity at 70.5 h is -2.87%.

Turning to `Cc1noc(Cl)c1CCC(=O)N1CCN(c2cnccn2)CC1`, the cytotoxicity at 70.5 h was -16.7%.

Turning to `COc1ccnc(CN2CCCC(CCc3ccc(F)cc3)C2)c1OC` (centres undefined), the cytotoxicity at 70.5 h came to 2.04%.

As for `CN1CCCC(NC(=O)c2ccc(C(=O)c3cc[nH]c3)cc2)C1` (centres undefined), the cytotoxicity at 70.5 h is -16.9%.

Take `CN(C)C(=O)CN1CCC2(CC1)CC(=O)c1ccc3ccccc3c1O2`: the cytotoxicity at 70.5 h is -6.26%.

Take `CCc1c(C(=O)O)nnn1-c1ccc(C)cc1C`: the cytotoxicity at 70.5 h was -17.4%.

Take `CCO[C@@H]1CC[C@H]2[C@H]1OCCN2CC1CCC1`: the cytotoxicity at 70.5 h is -104%.

Values taken from ChEMBL document CHEMBL3507680, “University of Dundee, Gates Library screen for HepG2 cell viability”.
